Where two headings read alike, the source gives them in different places.
Tests used:
H9c2 cell = assay: LDH in culture medium under hypoxia/reoxygenation, H9c2 cells; assay type: cell-based; conditions: 1 × 10^−6 mol/L, vs H/R group (p < 0.01)
Protocol: (§1) Myocardiocytes H9c2 cell and the one which the L-type calcium channel gene was knock-out, the […]-/-) were incubated separately in culture plates. When cell confluence reached 85%, the cells were incubated for another 12 hours in DMEM medium with 0.5% FBS. Then cells were randomly divided into 6 groups, namely the control group, H/R group, DMSO group, H/R+X1(1 × 10^-6 mol/L) group, H/R+X2 (1 × 10^-6 mol/L) group and H/R+X3 (1 × 10^-6 mol/L) group. The hypoxic DMEM culture medium and reoxygenation medium were used in H/R process. The final volume was 500 uL. The compounds (X1, X2, X3) were administered continuously during the hypoxia/reoxygenation process. Finally, cell supernatant was collected and LDH was measured by colorimetric method according to the Kit instruction by manufacturer (Nanjin Jiancheng Lit. China).

SD rats [1] = conditions: rat, in vivo
SD rats [2] = assay: Effect on rat hemodynamics (left ventricular pressure, heart rate); conditions: anesthetized SD rats, 3 min after administration
[3] = test system: isolated rat thoracic aortic rings; assay: Vasodilation on KCl (60 mM)-contracted isolated rat thoracic aortic rings; conditions: KCl (60 mM)-induced contraction of rat aortic rings; 0.1 to 10 μM
Protocol: The vasodilation activity of compounds was evaluated in isolated rat thoracic aortic rings according to the methods of Greenwood and Polster et al. The aortic rings were allowed to equilibrate in Krebs bicarbonate solution ((PSS), containing118.0 mM NaCl, 4.7 mM KCl, 1.2 mM KH2PO4, 1.2 mM MgSO4.7H2O, 5.0 mM glucose, 25.0 mM NaHCO3, and 2.5 mM CaCl2.7H2O at 37°C and were gassed with 95% O2 and 5% CO2 for 90 min at a testing tension. KCl (60 mM) was used to depolarize the aortic rings. When the amplitude of the contraction reached a plateau, compounds X1, X2, X3 were added. Cumulative concentration-response curves to all compounds were determined in the absence and presence of endothelium. Using tips of forceps, the endothelium was mechanically removed from some rings by gently rubbing the lumen, if absence of endothelium is needed. Acetylcholine was used to confirm the removal of endothelium from the aortic rings.

rat myocardiocytes = assay: Inhibition of KCl-induced extracellular calcium influx (Fluo-3 fluorescence, confocal microscopy); assay type: cell-based; conditions: 60 mM KCl; for reduction of Ca^2+ fluorescent intensity, maximum degree: 0.1–10 μM
Protocol: Fluorescence intensity of Ca^2+ in myocardial cell was determined by laser scanning confocal microscopy (ACAS/ULTIMA312, Meridian Instruments) as previously described. Rat myocardiocytes were grown on 24-mm glass coverslips in 6-well plates in DMEM containing 10% FBS. After 24 h, the cells were incubated with Fluo 3-AM (20 μM) for 60 min in the dark at 37°C. Then, the cells were washed with HBSS three times to remove extracellular Fluo 3-AM. HBSS (HEPES-buffered physiological saline solution) contains 130 mM NaCl, 2.5 mM KCl, 1.2 mM MgCl2, 10 mM HEPES, 10 mM glucose, and 2 mM CaCl2, pH 7.4 (adjusted with NaOH). […] KCl was added into the cultured cells to induce the influx of extracellular Ca^2+ in HBSS and changes in fluorescence were recorded. Myocardiocytes were incubated for 30 min with 0.1, 1, and 10 μM compounds before adding KCl. Effect of compounds on KCl-induced changes in fluorescence was investigated.

[4] = molecular target: T1, L-type calcium channels in rat ventricular myocytes (Rattus norvegicus, UniProt P0DP29+P22002); assay: Inhibition of L-type calcium current (patch-clamp); assay type: cell-based; conditions: 0.1 to 10 μM, rat myocardiocytes
T1 construct: reduced the amplitude of the L-type calcium current in rat myocardiocytes; endogenous in cells; host or cells: rat ventricular myocytes (single cells)

H9c2 cell (Cacnalc−/−) = assay: LDH in culture medium under hypoxia/reoxygenation, H9c2 (Cacnalc−/−) cells; assay type: cell-based; conditions: 1 × 10^−6 mol/L
Protocol: as §1

SMILES	LDH under H/R (H9c2 cell)	+LVdp/dtmax (SD rats [1]; 0.25 mg/kg)	−LVdp/dtmax (SD rats [1]; 0.25 mg/kg)	+LVdp/dtmax (SD rats [1]; 0.5 mg/kg)	−LVdp/dtmax (SD rats [1]; 0.5 mg/kg)	+LVdp/dtmax (SD rats [1]; 1 mg/kg)	−LVdp/dtmax (SD rats [1]; 1 mg/kg)	HR (SD rats [2]; 0.25 mg/kg)	LVEDP (SD rats [2]; 0.25 mg/kg)	LVSP (SD rats [2]; 0.25 mg/kg)	HR (SD rats [2]; 0.5 mg/kg)	LVEDP (SD rats [2]; 0.5 mg/kg)	LVSP (SD rats [2]; 0.5 mg/kg)	HR (SD rats [2]; 1 mg/kg)	LVEDP (SD rats [2]; 1 mg/kg)	LVSP (SD rats [2]; 1 mg/kg)	IC50 [3]	maximum inhibition on the vascular ring contraction [3]	reduction of Ca^2+ fluorescent intensity, maximum degree (rat myocardiocytes)	maximum inhibition rate of L-type calcium current [4]	also measured
COc1ccc(C[N+]2(CCCC(=O)c3ccc(F)cc3)CCC(O)(c3ccc(Cl)cc3)CC2)cc1 (stereo not shown) [Compound X1]	decreased	1043.01 ± 143.24	899.04 ± 142.24	1011.02 ± 152.04	908.21 ± 151.02	946.02 ± 132.23	884.82 ± 148.09	355 ± 61	20.34 ± 3.06	145.32 ± 20.08	356 ± 55	21.02 ± 3.08	145.38 ± 18.06	342 ± 51	29.66 ± 4.33	132.32 ± 18.66	432 nM	92.5%	76.5%	97.2%	IC50 [4]: 472 nM; LDH under H/R (H9c2 cell (Cacnalc−/−)): remained unchanged
COc1cccc(C[N+]2(CCCC(=O)c3ccc(F)cc3)CCC(O)(c3ccc(Cl)cc3)CC2)c1 (stereo not shown) [Compound X2]	decreased	1029.32 ± 144.08	982.13 ± 154.56	1022.14 ± 142.21	984.12 ± 144.32	902.89 ± 138.88	955.23 ± 146.08	365 ± 59	22.12 ± 3.76	145.98 ± 16.42	362 ± 63	22.08 ± 3.44	146.66 ± 18.04	356 ± 53	26.93 ± 3.26	138.94 ± 16.06	4220 nM	67.08%	53.6%	82.8%	IC50 [4]: 493 nM; LDH under H/R (H9c2 cell (Cacnalc−/−)): remained unchanged
COc1ccccc1C[N+]1(CCCC(=O)c2ccc(F)cc2)CCC(O)(c2ccc(Cl)cc2)CC1 (stereo not shown) [Compound X3]	decreased	1129.28 ± 162.26	989.92 ± 161.23	1221.12 ± 170.02	1021.23 ± 153.77	1248.36 ± 182.32	1022.15 ± 162.24	358 ± 52	23.86 ± 3.65	142.94 ± 18.08	362 ± 55	24.91 ± 3.07	148.98 ± 20.02	368 ± 54	23.69 ± 3.77	152.88 ± 21.04	7420 nM	48.66%	24.53%	70.2%	IC50 [4]: 721 nM; LDH under H/R (H9c2 cell (Cacnalc−/−)): remained unchanged
COc1ccc([C@@H]2Sc3ccccc3N(CCN(C)C)C(=O)[C@@H]2OC(C)=O)cc1 [Dil, diltiazem]	–	–	–	–	–	–	–	322 ± 25	30.21 ± 3.99	138.54 ± 21.35	321 ± 29	33.26 ± 4.26	130.25 ± 17.33	304 ± 47	38.51 ± 7.45	127.55 ± 21.23	–	–	–	–	+LVdp/dtmax (SD rats [2]; 0.25 mg/kg): 1099.22 ± 142.66; −LVdp/dtmax (SD rats [2]; 0.25 mg/kg): 787.25 ± 74.25; +LVdp/dtmax (SD rats [2]; 0.5 mg/kg): 922.11 ± 129.44; −LVdp/dtmax (SD rats [2]; 0.5 mg/kg): 689.76 ± 77.62; +LVdp/dtmax (SD rats [2]; 1 mg/kg): 899.08 ± 128.32; −LVdp/dtmax (SD rats [2]; 1 mg/kg): 622.94 ± 84.42
COC(=O)C1=C(C)NC(C)=C(C(=O)OC)C1c1ccccc1[N+](=O)[O-] [Nif, nifedipine]	–	–	–	–	–	–	–	372 ± 29	29.33 ± 5.56	137.21 ± 18.26	397 ± 73	33.64 ± 8.12	132.11 ± 11.10	311 ± 54	45.50 ± 6.43	105.00 ± 12.23	–	–	–	–	–
COc1ccc(CCN(C)CCCC(C#N)(c2ccc(OC)c(OC)c2)C(C)C)cc1OC (stereo not shown) [Ver, verapamil]	–	–	–	–	–	–	–	328 ± 28	25.39 ± 7.45	132.24 ± 12.74	302 ± 77	38.21 ± 8.18	112.74 ± 21.08	298 ± 41	42.21 ± 6.23	102.21 ± 14.21	–	–	–	–	+LVdp/dtmax (SD rats [2]; 0.25 mg/kg): 1022.49 ± 130.44; −LVdp/dtmax (SD rats [2]; 0.25 mg/kg): 932.24 ± 95.54; +LVdp/dtmax (SD rats [2]; 0.5 mg/kg): 925.38 ± 172.37; −LVdp/dtmax (SD rats [2]; 0.5 mg/kg): 699.87 ± 91.11; +LVdp/dtmax (SD rats [2]; 1 mg/kg): 885.32 ± 122.21; −LVdp/dtmax (SD rats [2]; 1 mg/kg): 657.80 ± 85.55; reduction of Ca^2+ fluorescence intensities (rat myocardiocytes; 10 μM, positive control): 86%

Reference: article PMC4791264, “Characterization and bioactivity of novel calcium antagonists - N-methoxy-benzyl haloperidol quaternary ammonium salt” (Oncotarget, 2015)
